Laboratory results reported in patent publication US20100273772A1, “Bisaryl Alkynylamides as Negative Allosteric Modulators of Metabotropic Glutamate Receptor 5 (MGLUR5)” (Wyeth LLC, priority 2009, published 2010).

Assays:
[1] = biological target: T1, metabotropic glutamate receptor 5 (Rattus norvegicus, UniProt P31424); assay: FLIPR Calcium 3 fluorescence-based functional assay of intracellular calcium, mGluR5 antagonist activity; format: cell-based; details: inhibition of glutamate (EC90, ~50 uM) stimulated calcium levels, mGluR5 HEK-293 cells; read-out: mGluR5 FLIPR MP Antagonist DR IC50
T1 construct: expressed in transfected cells; host or cells: HEK-293
T1 sequence (P31424 21-1203): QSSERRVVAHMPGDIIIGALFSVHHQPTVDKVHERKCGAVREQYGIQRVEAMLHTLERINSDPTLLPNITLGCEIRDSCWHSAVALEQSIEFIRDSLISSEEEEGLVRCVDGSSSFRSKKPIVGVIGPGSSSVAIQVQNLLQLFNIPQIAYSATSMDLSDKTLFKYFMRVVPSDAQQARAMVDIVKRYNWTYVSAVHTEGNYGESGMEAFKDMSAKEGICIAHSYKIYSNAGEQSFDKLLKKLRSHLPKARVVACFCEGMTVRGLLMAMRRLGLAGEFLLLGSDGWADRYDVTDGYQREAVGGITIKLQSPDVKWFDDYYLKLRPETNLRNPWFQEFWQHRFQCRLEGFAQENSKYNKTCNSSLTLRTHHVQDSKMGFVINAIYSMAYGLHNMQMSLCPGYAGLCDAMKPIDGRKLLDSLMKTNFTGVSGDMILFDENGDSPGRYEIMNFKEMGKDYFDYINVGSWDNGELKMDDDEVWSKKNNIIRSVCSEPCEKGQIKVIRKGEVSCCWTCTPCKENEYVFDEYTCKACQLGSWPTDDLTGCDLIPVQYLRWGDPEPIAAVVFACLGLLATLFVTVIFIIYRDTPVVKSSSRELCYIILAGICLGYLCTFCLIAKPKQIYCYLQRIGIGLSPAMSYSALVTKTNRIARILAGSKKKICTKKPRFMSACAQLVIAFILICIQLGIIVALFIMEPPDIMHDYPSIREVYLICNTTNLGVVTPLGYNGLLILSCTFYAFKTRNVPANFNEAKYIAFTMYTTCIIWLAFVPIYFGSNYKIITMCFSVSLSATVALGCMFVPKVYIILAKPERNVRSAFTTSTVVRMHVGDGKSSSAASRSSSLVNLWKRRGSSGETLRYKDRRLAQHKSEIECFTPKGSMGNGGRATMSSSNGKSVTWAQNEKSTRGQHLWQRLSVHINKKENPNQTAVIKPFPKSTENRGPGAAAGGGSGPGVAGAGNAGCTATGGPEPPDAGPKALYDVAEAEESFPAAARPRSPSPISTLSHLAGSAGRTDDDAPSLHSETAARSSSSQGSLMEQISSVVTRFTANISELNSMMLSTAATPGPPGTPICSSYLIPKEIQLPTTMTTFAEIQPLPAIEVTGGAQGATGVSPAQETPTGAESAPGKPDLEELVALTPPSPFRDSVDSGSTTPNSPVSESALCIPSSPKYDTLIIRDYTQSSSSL
Source text: (§1) where [L]=concentration of free radioligand and Kd=dissociation constant of radioligand for the receptor. TITLE: Identification of metabotropic glutamate receptor 5 antagonists using a stable, sensitive fluorescence-based screening system PURPOSE: The aim of the research presented here was to develop a robust functional assay to measure changes in intracellular calcium, with the goal of identifying potent mGluR5 antagonists.
The FLIPR Calcium 3 Assay Kit is designed to work with many cell types, both adherent and non-adherent. Optimal cell conditions for the FLIPR Calcium 3 Assay Kit require the creation of a confluent cell monolayer before placing the plates in FLIPR or FlexStation. In general, we start with 50,000 mGluR5 HEK-293 cells/well for a 96-well plate. For adherent cells, seeding cells overnight with a plating volume of 100 μL/well worked for 96-well plates.
Remove cell plates from the incubator. Remove the supernatant medium. Add 180 ul of Loading Buffer to each well (for 96-well plates). HBSS buffer component B) pipette 100 mL of 10× Hank's Balanced Salt Solution and 20 mL of 1M Hepes buffer
Incubate cell plates for 1 hour at 37° C. and then keep the plates at room temperature until used.
After incubation, transfer the plates directly to FLIPR and begin the calcium assay as described in the FLIPR system manual. For a signal test, a starting average count of ˜10,000 is recommended. Recommended experimental setup parameters are as follows. Faster addition speeds can lead to better mixing of compounds and lower signal variance across the plate.
Test or reference compound is added to the 96-well plate (manually). […] Relative Fluorescence Units (RFUs) are recorded over a given time period (stated above) depending on the platform system used.
For antagonists, results are expressed as % inhibition of glutamate stimulated Calcium levels. IC50 values were calculated by Prism GraphPad using a 4-parameter logistic equation. IC50 values are calculated using GraphPad by fitting to a 1 site-model.

[2] = biological target: T2, rat mGluR5 receptor (Rattus norvegicus, UniProt P31424); assay: [3H]-MPEP binding HEK-293 cell membranes expressing a rat mGluR5 receptor; details: displacement of 4 nM [3H]-MPEP, HEK-293 cell membranes expressing rat mGluR5, 60 minute at room temperature; read-out: mGluR5 Ligand Binding DR Ki
T2 construct: expressed in transfected cells; host or cells: HEK-293
T2 sequence (P31424 21-1203): as above
Experimental: TITLE: [^3H]-MPEP binding HEK-293 cell membranes expressing a rat mGluR5 receptor. PURPOSE: To identify high affinity compounds at the rat mGluR5 receptor based on their ability to displace the mGluR5 negative allosteric modulator, MPEP.
mGluR5 expressing HEK-293 cells are scraped off the plate, transferred to centrifuge tubes, and washed twice by centrifugation (2000 rpm for 10 min., 4° C.) in buffer (50 mM Tris pH 7.5). The resulting pellets are aliquoted and placed at −80° C. On the day of assay, the cells are thawed on ice, and resuspended in buffer. The binding assay is performed in a 96 well microtiter plate in a total volume of 250 μL. Non-specific binding is determined in the presence of 10 μM MPEP. Binding reaction includes a final radioligand [^3H]-MPEP concentration of 4 nM and 12-25 ug membrane protein per well. Following a 60 minute incubation at room temperature, the reaction is terminated by the addition of ice cold buffer and rapid filtration through a GF/B filter presoaked for 30 minutes in 0.5% PEI. Compounds are initially tested in a single point assay to determine percent inhibition at 10 μM. Subsequently, Ki values are determined for compounds defined to be active.
% inhibition and Ki values generated by GraphPad Prism and Excel Fit. IC50 values are calculated using GraphPad by fitting to a 1 or 2 site-binding model. Ki values are calculated from the apparent IC50 values using the Cheng-Prussof equation:
as §1

| Molecule | IC50 [1] | Ki [2] |
| --- | --- | --- |
| COc1ccc(C(=O)N2CCc3[nH]c4ccccc4c3C2)cc1C#Cc1ccccn1 [Example 12, 2-[4-methoxy-3-(pyridin-2-ylethynyl)benzoyl]-2,3,4,5-tetrahydro-1H-pyrido[4,3-b]indole] | > 1000 nM | 8 nM |
| COc1ccc(C(=O)N2Cc3ccccc3C(CNc3ccccc3)C2)cc1C#Cc1ccccn1 (stereo not shown) [Example 29, N-({2-[4-methoxy-3-(pyridin-2-ylethynyl)benzoyl]-1,2,3,4-tetrahydroisoquinolin-4-yl}methyl)aniline] | 447 nM | 68 nM |
| COc1ccc(C(=O)N2CCOc3ccccc3C2)cc1C#Cc1ccccn1 [Example 55, 4-{[4-methoxy-3-(pyridin-2-ylethynyl)phenyl]carbonyl}-2,3,4,5-tetrahydro-1,4-benzoxazepine] | 12 nM | 29 nM |
| O=C(c1ccc(C(F)(F)F)c(C#Cc2ccccn2)c1)N1CCc2ccc(Cl)cc2C1 [Example 94, 7-Chloro-2-{[3-(pyridin-2-ylethynyl)-4-(trifluoromethyl)phenyl]carbonyl}-1,2,3,4-tetrahydroisoquinoline] | 152 nM | 2 nM |
| O=C(c1ccc(C(F)(F)F)c(C#Cc2ccccn2)c1)N1CCc2ccccc2C1 [Example 93, 2-{[3-(Pyridin-2-ylethynyl)-4-(trifluoromethyl)phenyl]carbonyl}-1,2,3,4-tetrahydroisoquinoline] | 42 nM | 2 nM |
| Cc1ccc(C(=O)N2CCc3ccccc3C2)cc1C#Cc1ccccn1 [Example 82, 2-[4-Methyl-3-(pyridin-2-ylethynyl)benzoyl]-1,2,3,4-tetrahydroisoquinoline] | 27 nM | 1 nM |
| Cc1nc2c(s1)CN(C(=O)c1ccc(C)c(C#Cc3ccccn3)c1)CC2 [Example 89, 2-methyl-5-{[4-methyl-3-(pyridin-2-ylethynyl)phenyl]carbonyl}-4,5,6,7-tetrahydro[1,3]thiazolo[5,4-c]pyridine] | 4 nM | 4 nM |
| COc1ccc(C(=O)N2CCc3ncc(Br)cc3C2)cc1C#Cc1ccccn1 [Example 14, 3-bromo-6-[4-methoxy-3-(pyridin-2-ylethynyl)benzoyl]-5,6,7,8-tetrahydro-1,6-naphthyridine] | 51 nM | 8 nM |
| 2-[4-methoxy-3-(pyridin-2-ylethynyl)benzoyl]-7-(trifluoromethyl)-1,2,3,4-tetrahydroisoquinoline [Example 16] | 125 nM | 1 nM |
| O=C(c1ccc(Cl)c(C#Cc2ccccn2)c1)N1Cc2ccccc2C1 [Example 60, 2-[4-Chloro-3-(pyridin-2-ylethynyl)benzoyl]isoindoline] | 6 nM | 1 nM |
| O=C(c1ccc(C(F)(F)F)c(C#Cc2ccccn2)c1)N1Cc2ccccc2C1 [Example 96, 2-{[3-(Pyridin-2-ylethynyl)-4-(trifluoromethyl)phenyl]carbonyl}-2,3-dihydro-1H-isoindole] | 69 nM | 5 nM |
| COc1ccc(C(=O)N2CCc3nc(C)sc3C2)cc1C#Cc1ccccn1 [Example 48, 5-{[4-methoxy-3-(pyridin-2-ylethynyl)phenyl]carbonyl}-2-methyl-4,5,6,7-tetrahydro[1,3]thiazolo[5,4-c]pyridine] | 42 nM | 23 nM |
| Cc1ccc(C(=O)N2CCc3c(Cl)cccc3C2)cc1C#Cc1ccccn1 [Example 84, 5-chloro-2-[4-methyl-3-(pyridin-2-ylethynyl)benzoyl]-1,2,3,4-tetrahydroisoquinoline] | 48 nM | 0.3 nM |
| COc1ccc(C(=O)N2Cc3ccccc3C(S(=O)(=O)N3CCS(=O)(=O)CC3)C2)cc1C#Cc1ccccn1 (stereo not shown) [Example 25, 4-[(1,1-dioxidothiomorpholin-4-yl)sulfonyl]-2-[4-methoxy-3-(pyridin-2-ylethynyl)benzoyl]-1,2,3,4-tetrahydroisoquinoline] | 97 nM | 70 nM |
| O=C(c1ccc(Cl)c(C#Cc2ccccn2)c1)N1CCc2ncccc2C1 [Example 68, 6-{[4-chloro-3-(pyridin-2-ylethynyl)phenyl]carbonyl}-5,6,7,8-tetrahydro-1,6-naphthyridine] | 26 nM | 4 nM |
| 7-fluoro-2-[4-methoxy-3-(pyridin-2-ylethynyl)benzoyl]-1,2,3,4-tetrahydroisoquinoline [Example 9] | 23 nM | 3 nM |
| O=C(c1ccc(F)c(C#Cc2ccccn2)c1)N1CCc2ccccc2C1 [Example 71, 2-[4-Fluoro-3-(pyridin-2-ylethynyl)benzoyl]-1,2,3,4-tetrahydroisoquinoline] | 67 nM | 5 nM |
| O=C(c1ccc(Cl)c(C#Cc2ccccn2)c1)N1CCc2ccc(F)cc2C1 [Example 70, 2-{[4-chloro-3-(pyridin-2-ylethynyl)phenyl]carbonyl}-7-fluoro-1,2,3,4-tetrahydroisoquinoline] | 37 nM | 0.4 nM |
| COc1ccc(C(=O)N2Cc3ccccc3C2)cc1C#Cc1ccccn1 [Example 1, 2-[4-Methoxy-3-(pyridin-2-ylethynyl)benzoyl]isoindoline] | 10 nM | 4 nM |
| COc1ccc(C(=O)N2Cc3ccc(F)cc3C2)cc1C#Cc1ccccn1 [Example 37, 5-fluoro-2-[4-methoxy-3-(pyridin-2-ylethynyl)benzoyl]isoindoline] | 40 nM | 6 nM |
| COc1ccc(C(=O)N2CCc3c(OC)ccc(OC)c3C2)cc1C#Cc1ccccn1 [Example 19, 5,8-dimethoxy-2-[4-methoxy-3-(pyridin-2-ylethynyl)benzoyl]-1,2,3,4-tetrahydroisoquinoline] | 30 nM | 6 nM |
| COc1ccc2c(c1)CCN(C(=O)c1ccc(OC)c(C#Cc3ccccn3)c1)C2 [Example 31, 6-methoxy-2-[4-methoxy-3-(pyridin-2-ylethynyl)benzoyl]-1,2,3,4-tetrahydroisoquinoline] | 61 nM | 8 nM |
| O=C(c1ccc(F)c(C#Cc2ccccn2)c1)N1Cc2ccccc2C1 [Example 74, 2-[4-fluoro-3-(pyridin-2-ylethynyl)benzoyl]isoindoline] | 62 nM | 11 nM |
| COc1ccc(C(=O)N2CCc3ncccc3C2)cc1C#Cc1ccccn1 [Example 39, 6-[4-methoxy-3-(pyridin-2-ylethynyl)benzoyl]-5,6,7,8-tetrahydro-1,6-naphthyridine] | 26 nM | 23 nM |
| COc1ccc(C(=O)N2CCc3c(F)cccc3C2)cc1C#Cc1ccccn1 [Example 3, 5-fluoro-2-[4-methoxy-3-(pyridin-2-ylethynyl)benzoyl]-1,2,3,4-tetrahydroisoquinoline] | 44 nM | 2 nM |
| COc1ccc(C(=O)N2CCc3cccc(OC)c3C2)cc1C#Cc1ccccn1 [Example 21, 8-methoxy-2-[4-methoxy-3-(pyridin-2-ylethynyl)benzoyl]-1,2,3,4-tetrahydroisoquinoline] | 34 nM | 3 nM |
| Cc1ccc(C(=O)N2CCc3nc[nH]c3C2)cc1C#Cc1ccccn1 [Example 87, 5-{[4-methyl-3-(pyridin-2-ylethynyl)phenyl]carbonyl}-4,5,6,7-tetrahydro-3H-imidazo[4,5-c]pyridine] | 2 nM | 14 nM |
| COc1ccc(C(=O)N2CCc3[nH]cnc3C2)cc1C#Cc1ccccn1 [Example 58, 5-{[4-methoxy-3-(pyridin-2-ylethynyl)phenyl]carbonyl}-4,5,6,7-tetrahydro-1H-imidazo[4,5-c]pyridine] | 18 nM | 57 nM |
| COc1ccc(C(=O)N2Cc3ccncc3C2)cc1C#Cc1ccccn1 [Example 46, 2-[4-methoxy-3-(pyridin-2-ylethynyl)benzoyl]-2,3-dihydro-1H-pyrrolo[3,4-c]pyridine] | 18 nM | 31 nM |
